Patent US8153781B2, “Dendrimer conjugates of agonists and antagonists of the GPCR superfamily” (The United States of America as represented by the …, priority 2007, dated 2012)

Legend:
hA2A AR [1] = target: T1, hA2A AR (Homo sapiens, UniProt P29274); experiment: Radioligand membrane binding assay, A2A AR; set-up: expressed in transfected cells; conditions: for Ki: Table 3, expressed in CHO cells
Method: (§1) Radioligand Membrane Binding Experiments. Radioligand binding assays were performed for A1, A2A, and A3 ARs. Each tube in the binding assay contained 100 μL of membrane suspension (20 μg of protein), 50 μL of agonist radioligand, and 50 μL of increasing concentrations of the test ligands in Tris-HCl buffer (50 mM, pH 7.5) containing 10 mM MgCl2. Nonspecific binding was determined using […] 5′-N-ethylcarboxamidoadenosine diluted with the buffer. The mixtures were incubated at 25° C. for 60 min. Binding reactions were terminated by filtration through Whatman GF/B filters under a reduced pressure using a MT-24 cell harvester (Brandell, Gaithersburg, Md.). Filters were washed three times with 5 mL of 50 mM ice-cold Tris-HCl buffer (pH 7.5). […] After the filters were washed, the radioactivity was measured using a Beckman γ-counter. For the A1 and A2A assays, the radioactive agonists [^3H] N^6-chlorocyclopentyladenosine and [^3H] 2-(4-(2-carboxyethyl)phenylethylamino)-5′-N-ethylcaboxamido-adenosine were used, respectively. After the filters were washed, they were placed in scintillation vials containing 5 mL of Hydrofluor scintillation buffer and counted using a Perkin Elmer Liquid Scintillation Analyzer. The Ki value was determined using GraphPad Prism for all assays.

hA2A AR [2] = target: T1, hA2A AR; experiment: Functional assay at hA2A AR (Table 3); type: cell-based; set-up: expressed in transfected cells; conditions: Table 3 functional assay
hA3 AR [3] = target: T2, hA3 AR (Homo sapiens, UniProt P0DMS8); experiment: Radioligand membrane binding assay, A3 AR; conditions: Table 3; expressed in CHO cells
T2 construct: expressed in transfected cells; host or cells: CHO cells
T2 sequence (P0DMS8 1-318): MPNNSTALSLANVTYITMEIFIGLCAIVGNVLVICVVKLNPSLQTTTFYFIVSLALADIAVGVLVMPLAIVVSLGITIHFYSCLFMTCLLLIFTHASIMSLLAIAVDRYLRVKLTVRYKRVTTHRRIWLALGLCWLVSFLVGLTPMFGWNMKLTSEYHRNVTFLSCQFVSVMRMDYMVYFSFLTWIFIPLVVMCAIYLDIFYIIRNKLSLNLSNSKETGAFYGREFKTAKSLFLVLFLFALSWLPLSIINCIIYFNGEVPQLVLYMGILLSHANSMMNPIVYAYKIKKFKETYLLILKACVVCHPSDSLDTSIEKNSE
Method: as §1

hA3 AR [4] = target: T2, hA3 AR; experiment: Calcium protocol, CHO cells expressing human A3 receptor; type: cell-based
Method: Calcium Protocol. Chinese Hamster Ovary (CHO) cells stably expressing the human A3 receptor were grown in Dulbecco's Modified Eagle Medium/F12 (Sigma) supplemented with 10% fetal bovine serum, antibiotics, and glutamine. Each assay was completed by passaging the CHO A3 cells into 96 well plates and incubating overnight at 37° C. with 5% CO2. The FLIPR Calcium 4 Kit provided by Molecular Devices was used as described previously (Niebauer). Briefly, the media was removed from the cells, and 30 μl of the Calcium 4 fluorescent dye supplemented with 2.5 mM probenecid was added to each well. The cells were incubated at room temperature for 45 minutes. The compound plate was prepared by diluting the compounds to 10^−5-10^−9 M in Hanks Buffer. Samples were run in duplicate on the Molecular Devices FlexStation I at room temperature. […] Increases in intracellular calcium are reported as the relative fluorescence units after exposure minus the basal fluorescence value before exposure. Each experiment was repeated at least three times.

hA1 AR = target: T3, hA1 AR (Homo sapiens, UniProt P30542); experiment: Radioligand membrane binding assay, A1 AR; conditions: Table 3; expressed in CHO cells
T3 construct: expressed in transfected cells; host or cells: CHO cells
T3 sequence (P30542 1-326): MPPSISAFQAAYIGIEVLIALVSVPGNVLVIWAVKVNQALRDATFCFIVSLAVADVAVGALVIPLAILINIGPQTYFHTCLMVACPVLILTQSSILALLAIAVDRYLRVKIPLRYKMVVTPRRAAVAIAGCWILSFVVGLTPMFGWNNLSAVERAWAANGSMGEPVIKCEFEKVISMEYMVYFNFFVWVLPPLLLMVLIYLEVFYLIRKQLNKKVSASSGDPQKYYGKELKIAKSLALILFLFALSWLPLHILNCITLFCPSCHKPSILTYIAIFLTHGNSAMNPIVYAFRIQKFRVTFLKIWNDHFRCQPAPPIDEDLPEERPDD
Method: Radioligand Membrane Binding Experiments. […] Each tube in the binding assay contained 100 μL of membrane suspension (20 μg of protein), 50 μL of agonist radioligand, and 50 μL of increasing concentrations of the test ligands in Tris-HCl buffer (50 mM, pH 7.5) containing 10 mM MgCl2. Nonspecific binding was determined using 10 mM 5′-N-ethylcarboxamidoadenosine diluted with the buffer. The mixtures were incubated at 25° C. for 60 min. Binding reactions were terminated by filtration through Whatman GF/B filters under a reduced pressure using a MT-24 cell harvester (Brandell, Gaithersburg, Md.). Filters were washed three times with 5 mL of 50 mM ice-cold Tris-HCl buffer (pH 7.5). […] After the filters were washed, the radioactivity was measured using a Beckman γ-counter. For the A1 and A2A assays, the radioactive agonists [^3H] N^6-chlorocyclopentyladenosine and [^3H] […] The Ki value was determined using GraphPad Prism for all assays.

hA2A AR [5] = target: T1, hA2A AR
A3 adenosine receptor [6] = target: T4, A3 adenosine receptor (Homo sapiens, UniProt P0DMS8); experiment: cAMP inhibition assay, A3 adenosine receptor; type: cell-based; conditions: Table 8
T4 sequence (P0DMS8 1-318): T2 sequence (P0DMS8 1-318)
From the text: (§2) This Example illustrates a preparation and some of the properties of conjugate 117 in accordance with an embodiment of the invention.

A3 adenosine receptor [7] = target: T4, A3 adenosine receptor; experiment: Binding assay at A3 adenosine receptor (Table 7)
Method: CHO (Chinese hamster ovary) cells expressing the recombinant human ARs were cultured in Dulbecco's modified Eagle medium (DMEM) and F12 (1:1) supplemented with 10% fetal bovine serum, 100 units/mL penicillin, 100 μg/mL streptomycin, and 2 μmol/mL glutamine. After harvesting, cells were homogenized and suspended. Cells were then centrifuged at 500 g for 10 min, and the pellet was resuspended in 50 mM Tris-HCl buffer (pH 7.5) containing 10 mM MgCl2. The suspension was homogenized and was then recentrifuged at 20 000 g for 20 min at 4° C. The resultant pellets were resuspended in Tris buffer, incubated with adenosine deaminase for 30 min at 37° C., and the suspension was stored at −80° C. until the binding experiments. The protein concentration was measured using the Bradford assay.
as §2

A1AR [8] = target: T5, A1AR (Homo sapiens, UniProt P30542); experiment: [35S]GTPγS binding, A1AR; type: biochemical; conditions: CHO cells expressing A1AR
T5 construct: expressed in transfected cells; host or cells: CHO cells
T5 sequence (P30542 1-326): T3 sequence (P30542 1-326)
Method: [^35S]GTPγS binding was measured in 200 μl of buffer containing 50 mM Tris-HCl (pH 7.4), 1 mM EDTA, 1 mM MgCl2, 10 μM GDP, 1 mM dithiothreitol, 100 mM NaCl, 3 units/ml adenosine deaminase, 0.2 nM [^35S]GTPγS, 0.004% CHAPS, 0.5% bovine serum albumin and increasing concentrations of the ligands. Samples were started by addition of the membrane suspension (5-10 μg protein/tube) to the test tubes and incubated at 25° C. for 30 min. The assay was terminated by rapid filtration through Whatman GF/B filters, pre-soaked in 50 mM Tris-HCl (pH 7.4) containing 5 mM MgCl2 and 0.02% CHAPS. Non-specific binding of [^35S] GTPγS was measured in the presence of 10 μM unlabelled GTPγS. After the filters were washed, they were placed in scintillation vials containing 5 mL of Hydrofluor scintillation buffer and counted using a Perkin Elmer Liquid Scintillation Analyzer.

A1 adenosine receptor = target: T6, A1 adenosine receptor (Homo sapiens, UniProt P30542); experiment: cAMP inhibition assay, A1 adenosine receptor; type: cell-based; conditions: Table 8
T6 sequence (P30542 1-326): T3 sequence (P30542 1-326)
From the text: as §2

A1AR [9] = target: T5, A1AR; experiment: Binding at A1AR with [3H]CCPA, CHO cells
A2AAR = target: T7, A2AAR (Homo sapiens, UniProt P29274); experiment: Binding at A2AAR with [3H]CGS21680, HEK cells
T7 construct: expressed in transfected cells; host or cells: CHO
T7 sequence (P29274 whole entry): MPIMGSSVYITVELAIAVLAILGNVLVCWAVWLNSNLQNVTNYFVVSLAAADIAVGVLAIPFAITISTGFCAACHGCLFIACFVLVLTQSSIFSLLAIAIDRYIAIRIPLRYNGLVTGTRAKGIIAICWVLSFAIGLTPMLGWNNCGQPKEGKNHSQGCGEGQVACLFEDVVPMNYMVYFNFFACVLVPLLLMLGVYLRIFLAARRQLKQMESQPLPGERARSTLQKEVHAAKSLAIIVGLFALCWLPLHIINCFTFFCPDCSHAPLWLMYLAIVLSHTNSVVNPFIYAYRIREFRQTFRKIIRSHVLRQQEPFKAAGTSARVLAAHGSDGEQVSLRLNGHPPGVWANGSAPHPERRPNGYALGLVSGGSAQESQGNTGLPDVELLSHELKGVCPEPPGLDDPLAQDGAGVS

T1 sequence (P29274 whole entry): as above

Compound `CCNC(=O)[C@H]1OC(n2cnc3c(N)nc(NCCc4ccc(CCC(=O)NCCNC(C)=O)cc4)nc32)[C@@H](O)C1O` (stereo partly shown) [compound 16] has a Ki (hA2A AR [1]) of 110 ± 15 nM, an EC50 (hA2A AR [2]) of 51 ± 8 nM and a Ki (hA3 AR [3]) of 58 ± 24 nM. The EC50 (hA3 AR [4]) was 725 ± 110 nM and the Ki (hA1 AR) was 984 ± 223 nM.

For `CCNC(=O)[C@H]1O[C@@H](n2cnc3c(N)nc(NCCc4ccc(CCC(=O)NCCN)cc4)nc32)[C@H](O)[C@@H]1O` [compound 5, 2-[4-(2-aminoethylaminocarbonylethyl)phenylethylamino]-5′-N-ethylcarboxamidoadenosine], the “hA2A, EC50 (class symbol)” value (hA2A AR [5]) was “FA (Full agonist at 10 μM with >90% of effect of NECA)”.

`NCCNCCNC(=O)Cc1ccc(NC(=O)Cc2ccc(Nc3ncnc4c3ncn4[C@@H]3O[C@H](CO)[C@@H](O)[C@H]3O)cc2)cc1` [compound 107, N-(2-Aminoethyl)-ADAC] gave a Ki (A3 adenosine receptor [6]) of 61 nM, a Ki (A3 adenosine receptor [7]) of 10 ± 2 nM and an EC50 (A1AR [8]) of 50 nM. The Ki (A1 adenosine receptor) was 72 nM, the Ki (A1AR [9]) was 43 nM and the Ki (A2AAR) was 300 ± 20 nM.

`CCNC(=O)[C@H]1OC(n2cnc3c(N)nc(NCCc4ccc(CCC(=O)NCCNC(=S)Nc5ccc(NC(=S)NCCNC(C)=O)cc5)cc4)nc32)[C@@H](O)C1O` (stereo partly shown) [compound 7] showed a Ki (hA2A AR [1]) of 70 nM, an EC50 (hA3 AR [4]) of 375 ± 40 nM and a Ki (hA1 AR) of 840 ± 100 nM.

Work on `NCCNC(=O)Cc1ccc(NC(=O)Cc2ccc(Nc3ncnc4c3ncn4[C@@H]3O[C@H](CO)[C@@H](O)[C@H]3O)cc2)cc1` [compound 101, N^6-[4-[[[4-[[[(2-Aminoethyl)amino]carbonyl]methyl]-anilino]carbonyl]methyl]phenyl]adenosine, reference compound] yielded an EC50 (A1AR [8]) of 120 ± 13 nM, a Ki (A1AR [9]) of 10.4 ± 3.8 nM and a Ki (A2AAR) of 370 ± 100 nM.

`CCNC(=O)[C@H]1OC(n2cnc3c(N)nc(NCCc4ccc(CCC(=O)NCCNC(=S)Nc5ccc(N=C=S)cc5)cc4)nc32)[C@@H](O)C1O` (stereo partly shown) [compound 6] showed an inhibition at 10 µM (hA2A AR [1]; read-out: inhibition of binding at the hA2A AR) of 58%.

Compound `O=C(O)CCc1ccc(NC(=S)NCCNC(=O)Cc2ccc(NC(=O)Cc3ccc(Nc4ncnc5c4ncn5[C@@H]4O[C@H](CO)[C@@H](O)[C@H]4O)cc3)cc2)cc1` [compound 104] has an EC50 (A1AR [8]) of 3000 ± 1300 nM, a Ki (A1AR [9]) of 30 nM and a Ki (A2AAR) of 800 ± 360 nM.
